From patent US5571804A, “Cephalosporin antibiotics” (priority 1993, dated 1996)

How the values were obtained:
Assay in all cases: MIC, two-fold agar dilution
Format in all cases: cell-based
Conditions in all cases: Muller-Hinton agar, 37° C., 20 hours
E. coli TEM7 3457E = tested on: E. coli TEM7 3457E
[1] = tested on: Pseudomonas aeruginosa 1912E
[2] = tested on: Staphylococcus aureus 241
[3] = tested on: Pseudomonas aeruginosa 10145
[4] = tested on: Acinetobacter calcoaceticus 15473A
[5] = tested on: Staphylococcus aureus 6538P
E. coli TEM3 3455E = tested on: E. coli TEM3 3455E
[6] = tested on: Klebsiella aerogenes SHV-1 1976E
Proteus vularis 6059A = tested on: Proteus vularis 6059A
[7] = tested on: Streptococcus laecalis 29212A
[8] = tested on: Staphylococcus aureus giorgio
[9] = tested on: Serratia marcescens 1826E
E. coli TEM5 3739E = tested on: E. coli TEM5 3739E
[10] = tested on: Citrobacter diversus 2046E
[11] = tested on: Salmonella typhimurium 14028A
E. coli 851E = tested on: E. coli 851E
[12] = tested on: Pseudomonas aeruginosa 6065
Staphylococcus aureus 77 = tested on: Staphylococcus aureus 77
E. coli 3190Y = tested on: E. coli 3190Y
Enterobacter cloacae P99 = tested on: Enterobacter cloacae P99
[13] = tested on: Enterobacter cloacae IND + VE 1194E
E. coli 10536 = tested on: E. coli 10536
E. coli TEM1 1193E = tested on: E. coli TEM1 1193E
[14] = tested on: Klebsiella aerogenes K1 + 1082E
E. coli TEM9 2639E = tested on: E. coli TEM9 2639E
[15] = tested on: Staphylococcus epidermidis 887E

SMILES | minimal inhibitory concentration (MIC) (E. coli TEM7 3457E) | minimal inhibitory concentration (MIC) [2] | minimal inhibitory concentration (MIC) [3] | minimal inhibitory concentration (MIC) [4] | minimal inhibitory concentration (MIC) [5] | minimal inhibitory concentration (MIC) (E. coli TEM3 3455E) | minimal inhibitory concentration (MIC) [6] | minimal inhibitory concentration (MIC) (Proteus vularis 6059A) | minimal inhibitory concentration (MIC) [7] | minimal inhibitory concentration (MIC) [8] | minimal inhibitory concentration (MIC) [9] | minimal inhibitory concentration (MIC) (E. coli TEM5 3739E) | minimal inhibitory concentration (MIC) [10] | minimal inhibitory concentration (MIC) (E. coli 851E) | minimal inhibitory concentration (MIC) [12] | minimal inhibitory concentration (MIC) (Staphylococcus aureus 77) | minimal inhibitory concentration (MIC) (E. coli 3190Y) | minimal inhibitory concentration (MIC) (Enterobacter cloacae P99) | minimal inhibitory concentration (MIC) [13] | minimal inhibitory concentration (MIC) (E. coli 10536) | also measured
Nc1nc(/C(=N/O[C@@H](C(=O)O)c2ccc(O)c(O)c2)C(=O)N[C@@H]2C(=O)N3C(C(=O)O)=C(CSc4nc(N)c(N)c(N)n4)CS[C@H]23)cs1 [Compound I-5R, 7-[(Z)-2-(aminothiazol-4-yl)-2-(α-carboxy-3,4-dihydroxybenzyloxyimino)acetamido]-3-(4,5,6-triaminopyrimidine-2-yl)thiomethyl-3-cephem-4-carboxylate] | 0.063 | 128 | 2 | 1 | 2 | 0.25 | 0.25 | 0.5 | 16 | 1 | 2 | 0.25 | 1 | 0.13 | 8 | 32 | 0.063 | 32 | 32 | 0.063 | minimal inhibitory concentration (MIC) [1]: 1; minimal inhibitory concentration (MIC) [11]: 0.13; minimal inhibitory concentration (MIC) (E. coli TEM1 1193E): 0.25; minimal inhibitory concentration (MIC) [14]: 0.5; minimal inhibitory concentration (MIC) (E. coli TEM9 2639E): 0.5
Nc1ccnc(SCC2=C(C(=O)O)N3C(=O)[C@@H](NC(=O)/C(=N\O[C@@H](C(=O)O)c4ccc(O)c(O)c4)c4csc(N)n4)[C@H]3SC2)n1 [Compound I-3R, 7-[(Z)-2-(aminothiazol-4-yl)-2-(α-carboxyl-3,4-dihydroxybenzyloxyimino)acetamido]-3-(4-amino-pyrimidine-2-yl) thiomethyl-3-cephem-4-carboxylate] | 0.016 | 128 | 2 | 1 | 2 | 0.25 | 1 | 0.5 | 32 | 2 | 2 | 0.25 | 2 | 0.13 | 8 | 16 | 0.13 | 16 | 32 | 0.031 | minimal inhibitory concentration (MIC) [1]: 1; minimal inhibitory concentration (MIC) (E. coli TEM1 1193E): 0.5; minimal inhibitory concentration (MIC) [14]: 0.5; minimal inhibitory concentration (MIC) (E. coli TEM9 2639E): 0.5
Nc1nc(/C(=N/O[C@@H](C(=O)O)c2ccc(O)c(O)c2)C(=O)N[C@@H]2C(=O)N3C(C(=O)O)=C(CSc4nc(N)c5c(n4)CCC5)CS[C@H]23)cs1 [Compound I-4R, 7-[(Z)-2-(aminothiazol-4-yl)-2-(α-carboxyl-3,4-dihydroxybenzyioxyimino)acetamido]-3-(4-amino-5,6-cyclopentapyrimidine-2-yl)thiomethyl-3-cephem-4-carboxylate] | 0.063 | 128 | 2 | 1 | 2 | 0.25 | 0.5 | 0.5 | 16 | 2 | 2 | 0.25 | 2 | 0.13 | 8 | 32 | 0.25 | 32 | 32 | 0.063 | minimal inhibitory concentration (MIC) [15]: 32; minimal inhibitory concentration (MIC) [11]: 0.13; minimal inhibitory concentration (MIC) (E. coli TEM1 1193E): 0.5; minimal inhibitory concentration (MIC) [14]: 1; minimal inhibitory concentration (MIC) (E. coli TEM9 2639E): 0.5
Nc1cc(N)nc(SCC2=C(C(=O)O)N3C(=O)[C@@H](NC(=O)/C(=N\O[C@@H](C(=O)O)c4ccc(O)c(O)c4)c4csc(N)n4)[C@H]3SC2)n1 [Compound I-1R, 7-[(Z)-2-(aminothiazol-4-yl)-2-(α-carboxy-3,4-dihydroxybenzyloxyimino)acetamido]-3-(4,6-diamino-pyrimidine-2-yl) thiomethyl-3-cephem-4-carboxylate] | 0.063 | 128 | 2 | 1 | 2 | 0.25 | 0.5 | 0.5 | 16 | 1 | 2 | 0.25 | 1 | 0.13 | 8 | 32 | 0.13 | 32 | 32 | 0.063 | minimal inhibitory concentration (MIC) [1]: 1; minimal inhibitory concentration (MIC) [11]: 0.13; minimal inhibitory concentration (MIC) (E. coli TEM1 1193E): 0.25; minimal inhibitory concentration (MIC) [14]: 0.5; minimal inhibitory concentration (MIC) (E. coli TEM9 2639E): 0.5
Cc1c(N)nc(SCC2=C(C(=O)O)N3C(=O)[C@@H](NC(=O)/C(=N\O[C@@H](C(=O)O)c4ccc(O)c(O)c4)c4csc(N)n4)[C@H]3SC2)nc1N [Compound I-2R, 7-[(Z)-2-(aminothiazol-4-yl)-2-(α-carboxyl-3,4-dihydroxybenzyloxyimino)acetamido]-3-(4,6-diamino-5-methylpyrimidine-2-yl)thiomethyl-3-cephem-4-carboxylate] | 0.016 | 128 | 2 | 1 | 2 | 0.25 | 0.5 | 0.5 | 32 | 1 | 2 | 0.25 | 2 | 0.13 | 8 | 32 | 0.13 | 32 | 32 | 0.063 | minimal inhibitory concentration (MIC) [11]: 0.25; minimal inhibitory concentration (MIC) (E. coli TEM1 1193E): 0.5; minimal inhibitory concentration (MIC) [14]: 1; minimal inhibitory concentration (MIC) (E. coli TEM9 2639E): 0.5
